From article PMC11200976, “Pitavastatin Calcium Confers Fungicidal Properties to Fluconazole by Inhibiting Ubiquinone Biosynthesis and Generating Reactive Oxygen Species” (Antioxidants, 2024)
Read-outs that look alike come from different tables or passages of the source.

Assays:
[1] = system: C. albicans; test: Broth microdilution assay of synergistic lethality with 4 μg/mL FLC (recovery on drug-free YPD); assay type: cell-based, Candida albicans; conditions: with 4 μg/mL FLC; tested 100 μM to 0.1953 μM; 30 °C, 48 h
[2] = system: C. albicans; test: Spotting assay; assay type: cell-based, Candida albicans; conditions: 4 μM PIT; compared to wild-type strain and other heterozygous gene deletion mutants
Protocol: The spotting assays were conducted following the previously described method. In summary, C. albicans cultures were adjusted to a cell density of 1 × 10^7 cells/mL using a hemacytometer. Subsequently, the cultures were serially diluted 1:10 and spotted onto a designated YPD solid medium containing specified concentrations of compounds. Following incubation at 30 °C for 48 h, photographs capturing the cell growth were taken, and the assays were replicated thrice.

[3] = system: C. albicans; test: MIC assays (CLSI M27 broth microdilution); assay type: cell-based, Candida albicans; conditions: for MIC: Candida albicans
Protocol: The MIC assays for C. albicans were conducted following the broth microdilution protocol outlined by the Clinical and Laboratory Standards Institute (CLSI) protocols (M27, 4th edition). In brief, FDA-approved drugs were diluted in 96-well plates at two-fold the final concentration, with 4 μg/mL FLC. This dilution was combined with the cell suspension with a concentration of 1 × 10^3 cells/mL. The plates were incubated at a temperature of 30 °C for 48 h without agitation.

[4] = system: C. albicans; test: Dose–matrix titration assays (synergy, with YPD recovery plates); assay type: cell-based, Candida albicans; conditions: FLC ≤4 μg/mL; YPD, 30 °C, 48 h
Protocol: The synergistic effects of drugs were conducted following the same procedure as the MIC assays. Specifically, 50 μL of drug A was distributed through two-fold serial dilution across seven plate columns. Subsequently, 50 μL of drug B was distributed in a two-fold serial dilution manner along seven rows of the plate. Furthermore, 100 μL of C. albicans cultures, adjusted to a density of 1 × 10^3 cells/mL, was dispensed into wells containing drugs and one control well devoid of any drugs. Before the 48 h OD600 readings, the plates were subjected to meticulous agitation to ensure the deposition of a representative 2 μL aliquot from each well onto newly prepared YPD recovery plates, thereby facilitating the evaluation of cellular recuperation following drug treatments. The recovery plates were subsequently incubated at a temperature of 30 °C for a duration ranging from 24 to 48 h, after which they were photographed. The experimental procedures were conducted in triplicate to ensure reliability and reproducibility.

[5] = system: ERG1, ERG11, and ERG251 genes; assay type: cell-based, Candida albicans; conditions: 2 μM PIT alone, 8 h
[6] = system: C. albicans; test: Determination of MFC; assay type: cell-based, Candida albicans; conditions: as low as
Protocol: The determination of MFC followed the previously described method. In brief, a tested drug at a concentration two times higher than the final concentration was diluted in a two-fold serial dilution manner across ten columns of the plate, with each well containing 100 μL of the drug. Subsequently, 100 μL of C. albicans cultures (1 × 10^4 cells/mL) were transferred into wells with and without any drugs as the control. Following incubation at 30 °C for 48 h, a 200 μL aliquot per well was removed and evenly spread on SDA plates, which were then incubated at 30 °C for 48 h. The MFC value was determined as the lowest drug concentration at which 99.9% of fungal colonies were eradicated compared to the control group.

[7] = Acute toxicity, Up-and-Down procedure (OECD 425), intraperitoneal; assay type: in vivo; conditions: C57BL/6, mouse, in vivo, ip, mice
Protocol: Following a previously described methodology, the intraperitoneal route was employed in adult mice. In brief, the primary test involved a sequential administration of doses at intervals of at least 48 h, with one mouse being dosed at a time. Initially, a dose below LD50 was administered intraperitoneally to a mouse. If the mouse survived, the subsequent mouse would receive 1.3 times the initial dose. Conversely, if the mouse died, the subsequent mouse would receive a dose decreased by 1.3 times the initial dose. Each mouse was monitored for 48 h before determining the subsequent mouse’s dosage and administration. The experiment was terminated upon five “survive or die” reversals within a consecutive set of six animals tested. Subsequently, the LD50 and its corresponding confidence interval were computed based on the conditions observed in all mice after the experiment.

[8] = system: C. albicans SC5314, SN152, cmp1-aid∆/cmp1-aid∆, and PADH1-UPC2 strains; test: FLC disk diffusion assays (25 μg FLC disk, 5 μM adjuvant); assay type: cell-based, Candida albicans; conditions: SC5314, SN152, cmp1-aid∆/cmp1-aid∆, PADH1-UPC2
Protocol: Yeast cells were cultured overnight at a temperature of 30 °C, and the resulting cell suspension was diluted to a concentration of 1 × 10^7 cells/mL in phosphate-buffered saline (PBS). At a concentration of 5 μM, the drugs were individually added to YPD plates for disk assays using a 25 μg FLC disk (6 mm, Liofilchem, Roseto degli Abruzzi, Italy). The plates were then incubated at 30 °C for 48 h. Subsequently, the disk was transferred to a drug-free YPD plate, which was incubated at 30 °C for 24 h and photographed.

## O=C(O)C[C@H](O)C[C@H](O)/C=C/c1c(C2CC2)nc2ccccc2c1-c1ccc(F)cc1 [PIT, pitavastatin calcium]
[1]
  synergistic lethal concentration (converts FLC from fungistatic to fungicidal): ≤ 6.25 µM
[2]
  susceptibility of HMG1/hmg1Δ, ERG8/erg8Δ and IDI1/idi1Δ mutants to PIT: more susceptible
[3]; 100 μM exogenous ergosterol, SN152, MIC and spotting assays
  antifungal efficacy of PIT with exogenous ergosterol: negated
[3]; 100 μM exogenous mevalonate, SN152, MIC and spotting assays
  antifungal effects of PIT with exogenous mevalonate: mitigated
[3]; SEC14/sec14△, YPD, read-out: MIC of PIT
  MIC: 2 µM
[3]; SN152, YPD, read-out: MIC of PIT
  MIC: 2 µM
[3]; age3△/age3△, YPD, read-out: MIC of PIT
  MIC: 2 µM
[3]; control strain (wild-type), read-out: MIC of PIT
  MIC: 3.12 µg/mL
[3]; hac1△/hac1△, YPD, read-out: MIC of PIT
  MIC: 2 µM
[3]; hse1△/hse1△, YPD, read-out: MIC of PIT
  MIC: 2 µM
[3]; ire1△/ire1△, YPD, read-out: MIC of PIT
  MIC: 2 µM
[3]; mvb12△/mvb12△, YPD, read-out: MIC of PIT
  MIC: 2 µM
[3]; read-out: MIC of PIT, erg11∆/erg11∆ null mutant
  MIC: 0.195 µg/mL
[3]; snf7△/snf7△, YPD, read-out: MIC of PIT
  MIC: 2 µM
[3]; vps20△/vps20△, YPD, read-out: MIC of PIT
  MIC: 2 µM
[3]; vps22△/vps22△, YPD, read-out: MIC of PIT
  MIC: 2 µM
[3]; vps23△/vps23△, YPD, read-out: MIC of PIT
  MIC: 2 µM
[3]; vps28△/vps28△, YPD, read-out: MIC of PIT
  MIC: 2 µM
[3]; vps36△/vps36△, YPD, read-out: MIC of PIT
  MIC: 2 µM
[4]
  concentration that renders FLC fungicidal (no recovery on YPD solid medium): ≤ 3.125 µM
[5]
  mRNA expression level of ERG1 gene, upregulation: 2 fold
  mRNA expression level of ERG11 gene, upregulation: 2 fold
  mRNA expression level of ERG251 gene, upregulation: 2 fold
[6]
  concentration of PIT that renders FLC fungicidal: 1 µM
[7]
  LD50 at 48 h: 104 mg/kg
[8]
  effect on FLC tolerance in FLC disk diffusion, all four strains: made FLC fungicidal
